Results taken from US20220281831A1, “FUSED-GLUTARIMIDE CRBN LIGANDS AND USES THEREOF” (Kymera Therapeutics, Inc., priority 2019, published 2022).

Key:
CRBN-DDB1 = CRBN-DDB1 (Homo sapiens, UniProt Q96SW2); assay: Fluorescence Polarization (FP) CRBN binding assay, probe TM-493 (FAM-BB-100); settings: CRBN-DDB1, TM-493 probe, 60 min room temperature
Protocol: Fluorescence Polarization (FP) Assay
Materials: PerkinElmer EnVision 2104 Multilabel Reader, PerkinElmer FITC FP dual emission Label 2100-8060, Corning 384-well microplate #4514, V-CMR-TM-493 (FAM-BB-100), and CRBN-DDB1-180605.
Methods: Dilution buffer (50 mM HEPES-Na pH 7.5, 100 mM NaCl, 2 mM DTT, and 0.005% Tween-20) and compound DMSO dilutions were prepared. 4× compound working solutions were made with 8% DMSO (4×) and 13.8 μL/well of dilution buffer was placed in a new 96-well plate and 1.2 μL/well of above compound DMSO dilutions were added to the wells. 40 nM (4×) TM-493 in dilution buffer was prepared from a 10 μM DMSO stock and 15 μL per well of the TM-493 working solution was transferred into the compound working solution. 160 nM (2×) CRBN-DDB1 working solution was prepared with Dilution Buffer and 10 μL/well were added into a 384-well plate. 10 μL per well of the TM-493/compound mixture were transferred into the 384-well plate. The “positive control” was sample without protein and compound in 2% DMSO. After incubation at room temperature for 60 min, data was collected and read on data on an EnVision with the following setting: Excitation Light (%): 100; Measurement Height: 9.4; G-Factor: 1; Detector Gain 1: 200; Detector Gain 2: 200; Flash Number: 100. Data was processed using GraphPad Prism 7.0
(§1) The compound numbers correspond to the compound numbers in Table 1.

[1] = target: His-tagged CRBN-DDB1 complex (Homo sapiens, UniProt Q96SW2); assay: Time-Resolved Fluorescence Resonance Energy Transfer (TR-FRET / HTRF) CRBN binding assay, displacement of Cy5-labeled thalidomide; settings: His-CRBN-DDB1, Cy5-thalidomide 8 nM, 1 hour room temperature
Protocol: Time-Resolved Fluorescence Resonance Energy Transfer (TR-FRET) Assay.
Equal volumes of His-tagged CRBN-DDB1 complex (56 nM) was mixed with Eu-cryptate labeled Anti-6HIS-monoclonal antibody (50× dilution from the commercial stock solution, Vender: Cisbio, Cat. #61HI2KLA) in a final buffer containing 20 mM HEPES pH 7.0, 150 mM NaCl, 0.005% Tween-20. […] The mixture were incubated at room temperature for 1 hour. FRET signals were measured on an EnVision plate reader (Perkin Elmer) by exciting at 340 nm and recording emission at both 615 nm as no FRET control and 665 nm as the FRET signals with a 60 microsecond delay. FRET efficiency was calculated as the ratio of fluorescent signals at […]. Quantitative loss of FRET efficiency as a function of compound concentrations was fitted by a four-parameter Logistic Function using GraphPad Prism 7.0 and the IC50 values were reported for each compound.
as §1

Chain of His-tagged CRBN-DDB1 complex (Q96SW2 whole entry): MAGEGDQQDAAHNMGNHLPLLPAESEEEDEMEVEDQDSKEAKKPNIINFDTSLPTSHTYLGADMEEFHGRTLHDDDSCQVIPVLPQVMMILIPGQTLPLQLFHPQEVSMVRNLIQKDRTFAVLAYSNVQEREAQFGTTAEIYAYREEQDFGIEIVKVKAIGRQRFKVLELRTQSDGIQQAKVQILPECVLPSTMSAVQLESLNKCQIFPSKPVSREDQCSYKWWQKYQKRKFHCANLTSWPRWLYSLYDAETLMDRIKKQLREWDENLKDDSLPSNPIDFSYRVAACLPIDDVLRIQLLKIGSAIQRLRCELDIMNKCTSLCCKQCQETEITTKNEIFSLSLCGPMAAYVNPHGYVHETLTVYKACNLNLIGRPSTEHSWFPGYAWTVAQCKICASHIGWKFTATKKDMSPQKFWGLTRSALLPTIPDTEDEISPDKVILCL
Chain of His-tagged CRBN-DDB1 complex (Q16531 whole entry partner): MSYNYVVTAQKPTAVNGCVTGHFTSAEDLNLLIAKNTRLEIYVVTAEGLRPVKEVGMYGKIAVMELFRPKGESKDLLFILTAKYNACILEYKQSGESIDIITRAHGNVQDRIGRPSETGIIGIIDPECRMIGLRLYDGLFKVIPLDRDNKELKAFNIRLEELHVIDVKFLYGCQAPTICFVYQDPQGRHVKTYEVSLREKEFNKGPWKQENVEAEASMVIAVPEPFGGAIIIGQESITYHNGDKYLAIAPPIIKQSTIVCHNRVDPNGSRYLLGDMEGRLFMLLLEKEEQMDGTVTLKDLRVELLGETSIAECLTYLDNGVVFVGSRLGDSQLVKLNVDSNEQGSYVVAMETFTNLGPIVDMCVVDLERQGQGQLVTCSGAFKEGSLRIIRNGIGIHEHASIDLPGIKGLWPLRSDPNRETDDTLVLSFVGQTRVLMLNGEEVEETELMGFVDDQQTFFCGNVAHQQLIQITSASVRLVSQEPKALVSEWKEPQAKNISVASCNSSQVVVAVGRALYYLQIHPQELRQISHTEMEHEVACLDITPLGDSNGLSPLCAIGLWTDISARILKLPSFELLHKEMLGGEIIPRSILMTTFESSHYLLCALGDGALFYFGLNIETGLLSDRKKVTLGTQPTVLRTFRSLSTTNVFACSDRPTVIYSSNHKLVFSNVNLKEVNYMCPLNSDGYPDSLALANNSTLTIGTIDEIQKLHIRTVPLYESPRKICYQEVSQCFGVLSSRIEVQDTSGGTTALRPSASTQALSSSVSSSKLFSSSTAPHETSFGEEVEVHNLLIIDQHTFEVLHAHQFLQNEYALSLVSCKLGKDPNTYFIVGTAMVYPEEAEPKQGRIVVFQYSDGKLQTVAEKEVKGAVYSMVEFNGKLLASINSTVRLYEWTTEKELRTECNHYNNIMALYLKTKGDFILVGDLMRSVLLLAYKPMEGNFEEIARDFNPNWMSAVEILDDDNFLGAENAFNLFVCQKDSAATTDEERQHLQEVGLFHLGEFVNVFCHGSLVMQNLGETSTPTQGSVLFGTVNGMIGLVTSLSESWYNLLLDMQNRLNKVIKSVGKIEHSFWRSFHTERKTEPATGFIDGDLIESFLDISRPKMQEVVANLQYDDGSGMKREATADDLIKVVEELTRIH
Chain of CRBN-DDB1 (Q96SW2 whole entry): as the sequence (Q96SW2 whole entry) above
Chain of CRBN-DDB1 (Q16531 whole entry partner): as the sequence (Q16531 whole entry partner) above

IC50 (CRBN-DDB1) | IC50 [1] | SMILES
10 to 30 µM | > 100 µM | O=C1Cc2cccc(C(=O)N3CCc4ccccc43)c2C(=O)N1 [Compound I-1, 8-(2,3-Dihydroindole-1-carbonyl)-2,4-dihydroisoquinoline-1,3-dione]
30 to 100 µM | > 100 µM | NC(=O)c1ccccc1-c1cccc2c1C(=O)NC(=O)C2 [Compound I-2, 2-(1,3-Dioxo-2,4-dihydroisoquinolin-8-yl)benzamide]
30 to 100 µM | > 100 µM | O=C1Cc2cccc(C(=O)N3CCOc4ccccc43)c2C(=O)N1 [Compound I-3, 8-(2,3-Dihydro-1,4-benzoxazine-4-carbonyl)-2,4-dihydroisoquinoline-1,3-dione]
> 100 µM | 30 to 100 µM | Cc1ccccc1-c1ccc2c(c1)C(=O)NC(=O)C2 [Compound I-4, 7-(2-Methylphenyl)-2,4-dihydroisoquinoline-1,3-dione]
30 to 100 µM | > 100 µM | O=C1Cc2ccccc2C(=O)N1 [Compound I-5, 2,4-Dihydroisoquinoline-1,3-dione]
> 100 µM | > 100 µM | Cc1ncoc1-c1ccc2c(c1)C(=O)NC(=O)C2 [Compound I-6, 7-(4-Methyl-1,3-oxazol-5-yl)-2,4-dihydroisoquinoline-1,3-dione]
> 100 µM | 30 to 100 µM | O=C1Cc2ccc(Br)cc2C(=O)N1 [Compound I-7, 7-Bromo-2,4-dihydroisoquinoline-1,3-dione]
> 100 µM | 10 to 30 µM | O=C1Cc2cccc(Br)c2C(=O)N1 [Compound I-8, 8-Bromo-2,4-dihydroisoquinoline-1,3-dione]
10 to 30 µM | < 10 µM | Nc1ccc2c(c1)C(=O)NC(=O)C2 [Compound I-12]
30 to 100 µM | > 100 µM | Nc1ccccc1-c1ccc2c(c1)C(=O)NC(=O)C2 [Compound I-17, 7-(2-aminophenyl)-2,4-dihydroisoquinoline-1,3-dione]
10 to 30 µM |  | Cc1ccccc1-c1cccc2c1C(=O)NC(=O)C2 [Compound I-24]
> 100 µM |  | Cc1ncoc1-c1cccc2c1C(=O)NC(=O)C2 [Compound I-25]
> 100 µM |  | O=C1CC2(C(=O)N1)C(=O)Nc1ccccc12 (stereo not shown) [Compound I-176]
< 10 µM |  | O=C1Cc2cccc(Oc3ccccc3Br)c2C(=O)N1 [Compound I-205]
< 10 µM |  | O=C1Cc2cccc(Oc3ccc(Br)cc3)c2C(=O)N1 [Compound I-206, 8-(4-Bromophenoxy)-2,4-dihydroisoquinoline-1,3-dione]
< 10 µM |  | O=C1Cc2cccc(Oc3cccc(Br)c3)c2C(=O)N1 [Compound I-207]
10 to 30 µM |  | O=C1Cc2cccc(C(=O)N(Cc3ccccc3)Cc3ccccc3)c2C(=O)N1 [Compound I-208]
10 to 30 µM |  | O=C1Cc2cccc(Oc3ccccc3[N+](=O)[O-])c2C(=O)N1 [Compound I-261]
> 100 µM |  | O=C1Cc2cccc(Oc3ccccc3)c2CC(=O)N1 [Compound I-262]
30 to 100 µM |  | Nc1ccccc1Oc1cccc2c1C(=O)NC(=O)C2 [Compound I-263]
10 to 30 µM |  | O=C1Cc2cccc(Oc3cccnc3)c2C(=O)N1 [Compound I-271]
 | 30 to 100 µM | O=C1CC2(CCN(Cc3ccc([N+](=O)[O-])s3)CC2)CC(=O)N1 [Compound I-330]
 | > 100 µM | O=C1CC2(CCN(Cc3cccc4ccccc34)CC2)CC(=O)N1 [Compound I-331]

IC50 (CRBN-DDB1) | IC50 [1] | SMILES
 | > 100 µM | CN(C)c1ccc(CN2CCC3(CC2)CC(=O)NC(=O)C3)cc1 [Compound I-332]
 | > 100 µM | O=C1CC2(CCN(Cc3cc4ccccc4o3)CC2)CC(=O)N1 [Compound I-333]
 | > 100 µM | O=C1CC2(CCN(C(=O)COCc3ccccc3)CC2)CC(=O)N1 [Compound I-334]
 | > 100 µM | CCCCOc1ccc(CN2CCC3(CC2)CC(=O)NC(=O)C3)cc1 [Compound I-335]
 | > 100 µM | O=C1CC2(CCN(Cc3ccc(F)c4ccccc34)CC2)CC(=O)N1 [Compound I-336]
 | > 100 µM | O=C1CC2(CCN(Cc3ccc[nH]3)CC2)CC(=O)N1 [Compound I-337]
 | > 100 µM | Cc1ccc(CN2CCC3(CC2)CC(=O)NC(=O)C3)cc1 [Compound I-338]
 | > 100 µM | O=C1CC2(CCN(Cc3c[nH]cn3)CC2)CC(=O)N1 [Compound I-339]
 | > 100 µM | Cc1cc(C(=O)N2CCC3(CC2)CC(=O)NC(=O)C3)ccn1 [Compound I-340]
 | > 100 µM | O=C1CC2(CCN(C(=O)c3ccn[nH]3)CC2)CC(=O)N1 [Compound I-341]
 | > 100 µM | O=C1CC2(CCN(Cc3c[nH]c4ccccc34)CC2)CC(=O)N1 [Compound I-342]
 | > 100 µM | O=C1CC2(CCN(Cc3ccc(Cl)cc3)CC2)CC(=O)N1 [Compound I-343]
 | > 100 µM | O=C1CC2(CCN(Cc3ccc(Oc4ccccc4)cc3)CC2)CC(=O)N1 [Compound I-344]
 | > 100 µM | COc1ccc(CN2CCC3(CC2)CC(=O)NC(=O)C3)cn1 [Compound I-345]
 | > 100 µM | O=C1CC2(CCN(Cc3ccc(-c4ccccc4)cc3)CC2)CC(=O)N1 [Compound I-346]
 | > 100 µM | O=C1CC2(CCN(Cc3cccc(O)c3)CC2)CC(=O)N1 [Compound I-347]
 | > 100 µM | O=C1CC2(CCN(C(=O)c3cccs3)CC2)CC(=O)N1 [Compound I-348]
 | > 100 µM | Cc1cccc(CN2CCC3(CC2)CC(=O)NC(=O)C3)n1 [Compound I-349]
 | > 100 µM | O=C1CC2(CCN(C(=O)c3cccnn3)CC2)CC(=O)N1 [Compound I-350]
 | > 100 µM | O=C1CC2(CCN(C3CCCC3)CC2)CC(=O)N1 [Compound I-351]
 | > 100 µM | O=C1CC2(CCN(C(=O)Cc3ccccn3)CC2)CC(=O)N1 [Compound I-352]
 | > 100 µM | O=C1CC2(CCN(C(=O)c3cnco3)CC2)CC(=O)N1 [Compound I-353]
 | > 100 µM | O=C1CC2(CCN(C(=O)c3c[nH]cn3)CC2)CC(=O)N1 [Compound I-354]

IC50 (CRBN-DDB1) | IC50 [1] | SMILES
 | > 100 µM | COc1ccc(C(=O)N2CCC3(CC2)CC(=O)NC(=O)C3)cn1 [Compound I-355]
 | > 100 µM | Cc1ccc(CN2CCC3(CC2)CC(=O)NC(=O)C3)o1 [Compound I-356]
 | > 100 µM | O=C1CC2(CCN(CCc3ccccc3)CC2)CC(=O)N1 [Compound I-357]
 | > 100 µM | Cc1ncoc1C(=O)N1CCC2(CC1)CC(=O)NC(=O)C2 [Compound I-358]
 | > 100 µM | O=C1CC2(CCN(C(=O)c3cnccn3)CC2)CC(=O)N1 [Compound I-359]
 | > 100 µM | O=C1CC2(CCN(C(=O)c3ccco3)CC2)CC(=O)N1 [Compound I-360]
 | > 100 µM | O=C1CC2(CCN(C(=O)c3ccc4ccoc4c3)CC2)CC(=O)N1 [Compound I-361]
 | > 100 µM | O=C1CC2(CCN(C(=O)C3CC3)CC2)CC(=O)N1 [Compound I-362]
 | > 100 µM | O=C1CC2(CCN(Cc3ccncc3)CC2)CC(=O)N1 [Compound I-363]
 | > 100 µM | O=C1CC2(CCN(C(=O)c3cnon3)CC2)CC(=O)N1 [Compound I-364]
 | > 100 µM | Cc1cccc(C(=O)N2CCC3(CC2)CC(=O)NC(=O)C3)c1 [Compound I-365]
 | > 100 µM | O=C1CC2(CCN(C(=O)c3cncnc3)CC2)CC(=O)N1 [Compound I-366]
 | > 100 µM | O=C1CC2(CCN(C(=O)c3cccc(C(F)(F)F)n3)CC2)CC(=O)N1 [Compound I-367]
 | > 100 µM | O=C1CC2(CCN(C(=O)c3ccc4ccccc4c3)CC2)CC(=O)N1 [Compound I-368]
 | > 100 µM | O=C1CC2(CCN(C(=O)c3ccc(O)cc3)CC2)CC(=O)N1 [Compound I-369]
 | > 100 µM | O=C1CC2(CCN(C(=O)c3n[nH]c4ccccc34)CC2)CC(=O)N1 [Compound I-371]
 | > 100 µM | O=C1CC2(CCNCC2)CC(=O)N1 [Compound I-372]
 | > 100 µM | O=C1CC2(CCN(C(=O)c3ccnc(Cl)c3)CC2)CC(=O)N1 [Compound I-373]
 | > 100 µM | O=C1CC2(CCN(Cc3ccccc3)CC2)CC(=O)N1 [Compound I-374]
 | 30 to 100 µM | O=C1NC(=O)[C@@H]2CN(C(=O)c3coc(COc4ccc5c(c4)OCO5)n3)C[C@H]12 [Compound I-375]
 | 30 to 100 µM | Cc1nn(C)c2nc(N3CCC4(CC3)CC(=O)NC(=O)C4)sc12 [Compound I-376]
 | 30 to 100 µM | O=C1CC2(CCc3cc(Br)ccc32)C(=O)N1 (stereo not shown) [Compound I-377]
 | 30 to 100 µM | O=C1NC(=O)c2cc(NC(=O)N3CC=C(c4ccc(O)cc4)CC3)ccc21 [Compound I-378]
